Test results reported in US7786356B2, “Method for the production of calendic acid, a fatty acid containing delta 8,10,12 conjugated double bonds and related fatty acids having a modification at the delta 9 position” (E.I. du Pont de Nemours and Company, priority 1999, dated 2010).

Tested on: pigs (barrows)
Experiment: Belly (fat) compression test in pigs fed conjugated fatty acids
Assay type: in vivo, pig
Description: Experiments were conducted to evaluate the effects of feeding eleostearic (18:3) conjugated fatty acids on pig growth, carcass characteristics, and fat firmness. Twenty-four pigs (barrows, castrated males, from PIC genetics) with a capacity for high rates of daily lean growth and reduced back fat were randomly assigned by litter mates, weight, and block to three dietary treatments. Group one was fed normal corn feed, group two received normal corn feed supplemented with CLA, and the third group received normal corn feed supplemented with conjugated linolenic acids, i.e., ClnAs (18:3 conjugated fatty acids). Pigs were penned individually and identified by ear tattoo. […]
Live weights were recorded to determine average daily gains Phase 1 (150 to 200 lbs), and Phase 2 (200 to 250 lbs). […]
When pigs reached 250 pounds body weight they were slaughtered, processed and standard carcass measurements were collected. […] Bellies from the eight pigs in each study group were evaluated for fat firmness evaluated by measuring belly thickness before and after compression. […] Fat compression was quantified by subtracting the compressed belly thickness from the initial belly thickness. Belly thickness was measured using a micrometer. Data were analyzed as a randomized complete block design using the GLM (General Linear Model) procedure of SAS (Statistical Analysis Systems). […]

Question: Which “fat firmness in pigs (in words)” value (addition to NC diets, versus NC diet) does the source give for Conjugated linoleic acid [NC + CLA] here?
Answer: Its value is “greater fat firmness”.

Question: And the “Pork Belly Compression” value (initial minus compressed belly thickness, 50 lb weight for one hour, 0.50% conjugated fatty acid in diet, smaller number = greater firmness, 8 pigs per group)?
Answer: Its value is 28.0 mm.
